Measured values: patent US20130116241A1, “NOVEL INHIBITOR COMPOUNDS OF PHOSPHODIESTERASE TYPE 10A” (AbbVie Inc., priority 2011, published 2013)

What follows are compounds tested against human PDE10A (UniProt Q9Y233) (assay: Measurement of PDE activity (recombinant enzyme, HTRF cAMP kit)). Conditions: Table 1, substrate 20 nM for PDE10, 60 minutes at 29 C, read-out: IC50.
Format: biochemical
Experimental: The recombinant PDE proteins are used in in vitro enzymatic reaction for measurement of PDE activity. These recombinant proteins, including PDE10A (human, rat and mouse PDE10) and isoforms of PDEs 1, 3, 4, and 5, were purchased from commercial vendor BPS Bioscience. The enzymatic activity of PDEs was determined by cAMP measurement kit from CisBio (IBA) using HTRF technology.
The PDE enzymatic reaction was carried out in assay buffer (20 mM Tris-HCl pH7.5, 10 mM MgCl2, 0.1% bovine serum albumin) containing enzyme and substrate. The PDE enzymes concentration ranged from 10 pM-250 pM, depending on each enzyme's specific activity. The substrate cyclic nucleotide (cAMP or cGMP) concentration used in the assay was 20 nM for PDE10, and 100 nM for other PDEs. The inhibitory effect of compound was determined by incubating various concentration of inhibitor in the enzymatic assay. Typically, compound was serial diluted in DMSO then further diluted in assay buffer. Next, the compound at varying concentration was mixed with PDE enzyme. The reaction was initiated by addition of cyclic nucleotide substrate, and incubated for 60 minutes at 29 C. The reaction was stopped by addition of lysis buffer from assay kit. The cAMP-d2 and anti-cAMP cryptate in the lysis buffer detected the level of cAMP left from the PDE hydrolysis reaction. The PDE activity is reversely correlated with the amount of cAMP left in the reaction and can be converted to the percent activity of an uninhibited control (100%). Thus, IC50 value of inhibitor can be obtained by plotting inhibitor concentration against PDE activity at that concentration.

human PDE10A, sequence (Q9Y233 290-1055 limits assumed): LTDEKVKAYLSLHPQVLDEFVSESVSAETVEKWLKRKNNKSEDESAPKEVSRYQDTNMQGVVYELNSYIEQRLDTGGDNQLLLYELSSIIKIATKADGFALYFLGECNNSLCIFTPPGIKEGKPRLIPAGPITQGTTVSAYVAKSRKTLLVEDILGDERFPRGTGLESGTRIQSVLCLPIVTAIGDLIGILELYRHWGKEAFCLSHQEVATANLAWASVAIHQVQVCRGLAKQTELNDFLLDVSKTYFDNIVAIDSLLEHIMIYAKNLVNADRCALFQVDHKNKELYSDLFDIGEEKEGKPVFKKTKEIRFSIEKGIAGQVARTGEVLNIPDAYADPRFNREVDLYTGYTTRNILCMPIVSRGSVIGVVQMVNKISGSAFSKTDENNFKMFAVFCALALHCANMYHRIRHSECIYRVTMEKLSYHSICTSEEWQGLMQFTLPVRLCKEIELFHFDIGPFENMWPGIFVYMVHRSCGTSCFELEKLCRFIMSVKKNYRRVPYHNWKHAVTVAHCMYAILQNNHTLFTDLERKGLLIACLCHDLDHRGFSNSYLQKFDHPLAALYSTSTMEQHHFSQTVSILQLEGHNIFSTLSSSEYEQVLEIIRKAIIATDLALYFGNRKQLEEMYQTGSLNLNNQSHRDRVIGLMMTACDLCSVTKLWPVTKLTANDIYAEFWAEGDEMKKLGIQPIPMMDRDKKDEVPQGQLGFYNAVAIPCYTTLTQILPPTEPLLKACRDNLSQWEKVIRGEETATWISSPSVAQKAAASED

Row | SMILES | IC50
1 | O=c1c2c(-c3cccnc3)cccc2ccn1C1CC1c1ccc2ccccc2n1 (single isomer, unassigned; (+)) [Example 239a, (+) anti 8-(pyridin-3-yl)-2-(2-(quinolin-2-yl)cyclopropyl)isoquinolin-1(2H)-one] | 0.1 to 0.2 µM
2 | Cc1ccc(-c2csc3cnn(CCc4ccc5ccccc5n4)c(=O)c23)cc1 [Example 7, 3-(4-methylphenyl)-5-[2-(quinolin-2-yl)ethyl]thieno[2,3-d]pyridazin-4(5H)-one] | 0.2 to 0.5 µM
3 | COc1ccc(-c2csc3cnn(CCc4ccc5ccccc5n4)c(=O)c23)cc1 [Example 11, 3-(4-methoxyphenyl)-5-[2-(quinolin-2-yl)ethyl]thieno[2,3-d]pyridazin-4(5H)-one] | 0.1 to 0.2 µM
4 | N#CCc1ccc(-c2csc3cnn(CCc4ccc5ccccc5n4)c(=O)c23)cc1 [Example 15, (4-{4-oxo-5-[2-(quinolin-2-yl)ethyl]-4,5-dihydrothieno[2,3-d]pyridazin-3-yl}phenyl)acetonitrile] | 0.2 to 0.5 µM
5 | O=c1c2c(-c3ccccc3Cl)csc2cnn1CCc1ccc2ccccc2n1 [Example 17, 3-(2-chlorophenyl)-5-[2-(quinolin-2-yl)ethyl]thieno[2,3-d]pyridazin-4(5H)-one] | 0.1 to 0.2 µM
6 | Cc1ccccc1-c1csc2cnn(CCc3ccc4ccccc4n3)c(=O)c12 [Example 18, 3-(2-methylphenyl)-5-[2-(quinolin-2-yl)ethyl]thieno[2,3-d]pyridazin-4(5H)-one] | 0.2 to 0.5 µM
7 | COc1cccc(-c2csc3cnn(CCc4ccc5ccccc5n4)c(=O)c23)c1 [Example 26, 3-(3-methoxyphenyl)-5-[2-(quinolin-2-yl)ethyl]thieno[2,3-d]pyridazin-4(5H)-one] | 0.2 to 0.5 µM
8 | O=c1c2c(-c3cccc(F)c3)csc2cnn1CCc1ccc2ccccc2n1 [Example 30, 3-(3-fluorophenyl)-5-[2-(quinolin-2-yl)ethyl]thieno[2,3-d]pyridazin-4(5H)-one] | 0.1 to 0.2 µM
9 | O=c1c2c(-c3cccc(O)c3)csc2cnn1CCc1ccc2ccccc2n1 [Example 31, 3-(3-hydroxyphenyl)-5-[2-(quinolin-2-yl)ethyl]thieno[2,3-d]pyridazin-4(5H)-one] | 0.1 to 0.2 µM
10 | CN(C)C(=O)c1cccc(-c2csc3cnn(CCc4ccc5ccccc5n4)c(=O)c23)c1 [Example 32, N,N-dimethyl-3-{4-oxo-5-[2-(quinolin-2-yl)ethyl]-4,5-dihydrothieno[2,3-d]pyridazin-3-yl}benzamide] | 0.2 to 0.5 µM
11 | O=c1c2c(-c3cccs3)csc2cnn1CCc1ccc2ccccc2n1 [Example 34, 5-[2-(quinolin-2-yl)ethyl]-3-(thiophen-2-yl)thieno[2,3-d]pyridazin-4(5H)-one] | 0.1 to 0.2 µM
12 | O=c1c2c(-c3cncnc3)csc2cnn1CCc1ccc2ccccc2n1 [Example 37, 3-(pyrimidin-5-yl)-5-[2-(quinolin-2-yl)ethyl]thieno[2,3-d]pyridazin-4(5H)-one] | < 0.1 µM
13 | COc1ncccc1-c1csc2cnn(CCc3ccc4ccccc4n3)c(=O)c12 [Example 38, 3-(2-methoxypyridin-3-yl)-5-[2-(quinolin-2-yl)ethyl]thieno[2,3-d]pyridazin-4(5H)-one] | 0.2 to 0.5 µM
14 | O=c1c2c(-c3cccnc3)csc2cnn1CCc1ccc2ccccc2n1 [Example 39, 3-(pyridin-3-yl)-5-[2-(quinolin-2-yl)ethyl]thieno[2,3-d]pyridazin-4(5H)-one] | < 0.1 µM
15 | O=c1c2c(-c3ccoc3)csc2cnn1CCc1ccc2ccccc2n1 [Example 41, 3-(furan-3-yl)-5-[2-(quinolin-2-yl)ethyl]thieno[2,3-d]pyridazin-4(5H)-one] | < 0.1 µM
16 | O=c1c2c(-c3cccc4cnccc34)csc2cnn1CCc1ccc2ccccc2n1 [Example 44, 3-(isoquinolin-5-yl)-5-[2-(quinolin-2-yl)ethyl]thieno[2,3-d]pyridazin-4(5H)-one] | 0.2 to 0.5 µM
17 | O=c1c2c(-c3cccc4[nH]ccc34)csc2cnn1CCc1ccc2ccccc2n1 [Example 45, 3-(1H-indol-4-yl)-5-(2-quinolin-2-yl-ethyl)-5H-thieno[2,3-d]pyridazin-4-one] | 0.1 to 0.2 µM
18 | O=c1c2c(-c3ccc4c(c3)CCO4)csc2cnn1CCc1ccc2ccccc2n1 [Example 46, 3-(2,3-dihydrobenzofuran-5-yl)-5-(2-quinolin-2-yl-ethyl)-5H-thieno[2,3-d]pyridazin-4-one] | < 0.1 µM
19 | O=c1c2c(-c3cccc4ncccc34)csc2cnn1CCc1ccc2ccccc2n1 [Example 47, 3-(quinolin-5-yl)-5-[2-(quinolin-2-yl)ethyl]thieno[2,3-d]pyridazin-4(5H)-one] | 0.1 to 0.2 µM
20 | Cc1noc(C)c1-c1csc2cnn(CCc3ccc4ccccc4n3)c(=O)c12 [Example 48, 3-(3,5-dimethyl-1,2-oxazol-4-yl)-5-[2-(quinolin-2-yl)ethyl]thieno[2,3-d]pyridazin-4(5H)-one] | < 0.1 µM
21 | COc1ccc(-c2csc3cnn(CCc4ccc5ccccc5n4)c(=O)c23)cn1 [Example 49, 3-(6-methoxypyridin-3-yl)-5-[2-(quinolin-2-yl)ethyl]thieno[2,3-d]pyridazin-4(5H)-one] | 0.1 to 0.2 µM
22 | O=c1c2c(-c3ccc4c(c3)OCCO4)csc2cnn1CCc1ccc2ccccc2n1 [Example 50, 3-(2,3-dihydro-1,4-benzodioxin-6-yl)-5-[2-(quinolin-2-yl)ethyl]thieno[2,3-d]pyridazin-4(5H)-one] | 0.2 to 0.5 µM

Next, values leading:

Row | IC50 | SMILES
23 | < 0.1 µM | O=c1c2c(NC3COC3)cccc2ccn1C1CC1c1ccc2ccccc2n1 (single isomer, unassigned; (+)) [Example 235a, (+) anti 8-(oxetan-3-ylamino)-2-(2-(quinolin-2-yl)cyclopropyl)isoquinolin-1(2H)-one]
24 | < 0.1 µM | O=c1c2c(-c3ccncc3)cccc2ccn1C1CC1c1ccc2ccccc2n1 (single isomer, unassigned; (-)) [Example 222b, (−) 8-(pyridin-4-yl)-2-(2-(quinolin-2-yl)cyclopropyl)isoquinolin-1(2H)-one]
25 | < 0.1 µM | O=c1c2c(-c3cccnc3)cccc2ccn1C1CC1c1ccc2ccccc2n1 (single isomer, unassigned; (-)) [Example 239b, (−) anti 8-(pyridin-3-yl)-2-(2-(quinolin-2-yl)cyclopropyl)isoquinolin-1(2H)-one]
26 | < 0.1 µM | O=c1c2c(-c3ccncc3)csc2c(-c2ccncc2)nn1CCc1ccc2ccccc2n1 [Example 1, 3,7-Di(pyridin-4-yl)-5-[2-(quinolin-2-yl)ethyl]thieno[2,3-d]pyridazin-4(5H)-one]
27 | < 0.1 µM | O=c1c2ccsc2c(-c2ccncc2)nn1CCc1ccc2ccccc2n1 [Example 2, 7-(Pyridin-4-yl)-5-[2-(quinolin-2-yl)ethyl]thieno[2,3-d]pyridazin-4(5H)-one]
28 | < 0.1 µM | O=c1c2c(-c3ccncc3)csc2cnn1CCc1ccc2ccccc2n1 [Example 3, 3-(Pyridin-4-yl)-5-[2-(quinolin-2-yl)ethyl]thieno[2,3-d]pyridazin-4(5H)-one]
29 | < 0.1 µM | O=c1c2c(-c3ccncc3)csc2c(-c2ccncc2)nn1CCc1ccccn1 [Example 5, 3,7-Di(pyridin-4-yl)-5-[2-(pyridin-2-yl)ethyl]thieno[2,3-d]pyridazin-4(5H)-one]
30 | < 0.1 µM | CC(C)c1ccc(-c2csc3cnn(CCc4ccc5ccccc5n4)c(=O)c23)cc1 [Example 8, 3-[4-(propan-2-yl)phenyl]-5-[2-(quinolin-2-yl)ethyl]thieno[2,3-d]pyridazin-4(5H)-one]
31 | < 0.1 µM | N#Cc1ccc(-c2csc3cnn(CCc4ccc5ccccc5n4)c(=O)c23)cc1 [Example 10, 4-{4-oxo-5-[2-(quinolin-2-yl)ethyl]-4,5-dihydrothieno[2,3-d]pyridazin-3-yl}benzonitrile]
32 | < 0.1 µM | O=c1c2c(-c3ccc(F)cc3)csc2cnn1CCc1ccc2ccccc2n1 [Example 12, 3-(4-fluorophenyl)-5-[2-(quinolin-2-yl)ethyl]thieno[2,3-d]pyridazin-4(5H)-one]
33 | < 0.1 µM | O=c1c2c(-c3ccc(O)cc3)csc2cnn1CCc1ccc2ccccc2n1 [Example 16, 3-(4-hydroxyphenyl)-5-[2-(quinolin-2-yl)ethyl]thieno[2,3-d]pyridazin-4(5H)-one]
34 | < 0.1 µM | O=c1c2c(-c3ccccc3F)csc2cnn1CCc1ccc2ccccc2n1 [Example 20, 3-(2-fluorophenyl)-5-[2-(quinolin-2-yl)ethyl]thieno[2,3-d]pyridazin-4(5H)-one]
35 | < 0.1 µM | O=c1c2c(-c3ccccc3O)csc2cnn1CCc1ccc2ccccc2n1 [Example 23, 3-(2-hydroxyphenyl)-5-[2-(quinolin-2-yl)ethyl]thieno[2,3-d]pyridazin-4(5H)-one]
36 | < 0.1 µM | N#Cc1cccc(-c2csc3cnn(CCc4ccc5ccccc5n4)c(=O)c23)c1 [Example 29, 3-[4-Oxo-5-(2-quinolin-2-yl-ethyl)-4,5-dihydro-thieno[2,3-d]pyridazin-3-yl}-benzonitrile]
37 | < 0.1 µM | O=c1c2c(-c3ccc4cc[nH]c4c3)csc2cnn1CCc1ccc2ccccc2n1 [Example 36, 3-(1H-indol-6-yl)-5-[2-(quinolin-2-yl)ethyl]thieno[2,3-d]pyridazin-4(5H)-one]
